Data published in patent US20260132123A1, “ABAD INHIBITOR COMPOUNDS” (UNIVERSITY COURT OF THE UNIVERSITY OF ST ANDREWS, priority 2021, published 2026).

How the values were obtained:
17β-HSD10 = target: T1, 17β-HSD10 (Homo sapiens, UniProt Q99714); assay: 17β-HSD10 (ABAD) enzyme inhibition assay, NADH oxidation read at 340 nm (primary screen and dose response); type: biochemical; settings: for IC50: 17β-HSD10 dose response / inhibition assay, read-out: 17β-HSD10 pIC50 (converted); for EC50 / Max. Effect (%) / Hill Slope / Max. Fit / Min. Fit: recombinant 17βHSD10 enzyme assay; for Hill Slope / Max. Fit / Min. Fit: curve fit
T1 construct: Histev (histidine tag with TEV site) (N, cleaved yes); made in house; host or cells: E. coli BL21-CodonPlus
T1 sequence (Q99714 1-261): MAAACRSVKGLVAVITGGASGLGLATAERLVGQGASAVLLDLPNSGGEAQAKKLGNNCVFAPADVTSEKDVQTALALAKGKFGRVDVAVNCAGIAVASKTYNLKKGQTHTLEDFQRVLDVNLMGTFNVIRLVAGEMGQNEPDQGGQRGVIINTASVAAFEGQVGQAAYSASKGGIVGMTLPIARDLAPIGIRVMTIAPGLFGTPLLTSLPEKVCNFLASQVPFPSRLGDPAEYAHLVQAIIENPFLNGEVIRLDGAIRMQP
How it was run: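 Tag-cleaved recombinant human 17β-HSD10 (2.5 nM) preincubated 15 min with compound in Tris pH 7.4, NaCl, DTT, Tween, BSA (catalase in some runs), then 100 μM acetoacetyl-CoA and NADH added. NADH oxidation by A340 fall: 35 min endpoint for screening at 10 μM; continuous 45 min for dose response.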

mtsABAD HEK293 cells [1] = assay: Alamar Blue cell viability assay; type: cell-based, human; settings: 50 μM compound
Experimental: Cell viability was assessed via fluorescence change using the commercially available Alamar Blue from ThermoFisher. HEK293 cells overexpressing mts17β-HSD10 were cultured in phenol-red free media (10% FBS, 1 mM sodium pyruvate, 100 units penicillin, 0.1 mg/mL streptomycin and 2 mM L-glutamine) and seeded at a density of 10,000 cells per well (100 μL, 96 well plates). […] Treated cells were then incubated at 37° C. and CO2 (5%) for 24 hours before the assay was performed as per the manufacturer's instructions. Fluorescence was measured at 530 nm excitation and 590 nm emission using a SpectraMaxM2e spectrophotometer.

mtsABAD HEK293 cells [2] = assay: Lactate dehydrogenase (LDH) cytotoxicity assay; type: cell-based, human; settings: 50 μM compound
Experimental: Cell cytotoxicity was assessed via the measurement of lactate dehydrogenase leakage into the culture medium using a commercially available kit from Pierce (Thermo Scientific cat no. 88953). This was carried out in accordance with the kit guidelines, with the activity of Lactate Dehydrogenase (LDH) being calculated from the change in absorbance at […] as NADH is reduced. HEK293 cells overexpressing mts17β-HSD10 were cultured in phenol-red free media (10% fetal bovine serum (FBS), 1 mM sodium pyruvate, 100 units penicillin, 0.1 mg/mL streptomycin and 2 mM L-glutamine) and seeded at a density of 10,000 cells per well (100 μL, 96 well plates). […] Treated cells were incubated at 37° C. and CO2 (5%) for 24 hours before the LDH assay was performed as per the manufacturer's instructions. Spontaneous control (water) and maximum control (lysis buffer) used in accordance with the kit guide. Absorbance was measured at 490 nm and 680 nm using a SpectraMaxM2e spectrophotometer. The measured LDH activity was used to calculate % cytotoxicity using the following equation: […]

| SMILES | IC50 (17β-HSD10) [µM] | figure in brackets after the pIC50 bound (17β-HSD10; Table 3, equals Max. Effect (%) of Table 6) | EC50 (17β-HSD10) [µM] | Max. Effect (%) (17β-HSD10) | Alamar Blue % Viability (50 μM Dose) (mtsABAD HEK293 cells [1]) [%] | LDH % Toxicity (50 μM Dose) (mtsABAD HEK293 cells [2]) [%] | Hill Slope (17β-HSD10) | Max. Fit (17β-HSD10) | Min. Fit (17β-HSD10) | fold improvement in activity / potency (17β-HSD10; relative to the parent compound of the sentence) | 17β-HSD10 / ABAD activity in words (SAR discussion) (17β-HSD10) |
| --- | --- | --- | --- | --- | --- | --- | --- | --- | --- | --- | --- |
| COc1ccc(-c2ccccc2[C@@H]2CCCN2C(=O)c2sccc2C)cn1 (single isomer, unassigned) [ESC1002161] | > 20 | 7 | > 20 | 7 | 92.566 | 4.783 | – | – | – | – | – |
| COc1ccc(-c2ccccc2[C@H]2CCCN2C(=O)c2sccc2C)cn1 (single isomer, unassigned) [ESC1002162] | 0.49 | – | 0.49 | 98 | 83.498 | 6.843 | 1 | 99 | 0 | – | – |
| COc1ccc(-c2ccccc2[C@H]2CCCN2C(=O)c2sccc2C)cc1 (single isomer, unassigned) [ESC1002331] | – | – | – | – | 88.56 | 5.88 | – | – | – | – | – |
| COc1ccc(-c2ccccc2[C@@H]2CCCN2C(=O)c2sccc2C)cc1 (single isomer, unassigned) [ESC1002332] | – | – | 0.166 | 99 | 87.68 | 3.52 | 1 | 100 | 0 | – | – |
| COc1ccc(-c2ccccc2[C@H]2CCCN2C(=O)c2ccccc2F)cn1 (stereo in doubt) [ESC1002119, (2-fluorophenyl)-[2-[2-(6-methoxy-3-pyridyl)phenyl]pyrrolidin-1-yl]methanone] | – | – | 4.17 | 64 | 79.180 | 4.780 | 1.3 | 57 | 0 | – | – |
| COc1ccc(-c2ccccc2[C@H]2CCCN2C(=O)c2ccc(C)cc2)cn1 (stereo in doubt) [ESC1002120, [2-[2-(6-methoxy-3-pyridyl)phenyl]pyrrolidin-1-yl]-(p-tolyl)methanone] | – | – | > 20 | 13 | 81.743 | 4.611 | – | – | – | – | – |
| COc1ccc(-c2ccccc2[C@H]2CCCN2C(=O)c2sccc2C)cc1 [ESC1002089] | – | – | – | – | 83.064 | 5.398 | 1.1 | 98 | 0 | under 3 fold | – |
| Cc1ccsc1C(=O)N1CCC[C@@H]1c1ccccc1-c1cccnc1 [ESC1002090] | – | – | 1.15 | 94 | 102.627 | 5.162 | 1.1 | 97 | 0 | – | – |
| Cc1ccsc1C(=O)N1CCC[C@@H]1c1ccccc1-c1ccn[nH]1 [ESC1002091] | – | – | 3.16 | 84 | 84.920 | 5.395 | 1.2 | 93 | – | – | – |
| Cc1ccsc1C(=O)N1CCC[C@@H]1c1ccccc1-c1cn[nH]c1 [ESC1002092] | – | – | 1.23 | 93 | 80.606 | 4.240 | 1 | 98 | 0 | – | – |
| COCCn1cnc(CN(C)c2cccc(NC(=O)c3ccccc3F)c2)c1 [ESC1002163] | – | – | > 20 | 0 | 78.775 | 4.975 | – | – | – | – | – |
| COCCN(C(=O)c1ccccc1F)c1cccc(N(C)Cc2cn(CCOC)cn2)c1 [ESC1002164, 2-fluoro-N-(2-methoxyethyl)-N-[3-[[1-(2-methoxyethyl)imidazol-4-yl]methyl-methylamino]phenyl]benzamide] | – | – | > 20 | 2 | 77.951 | 5.093 | – | – | – | – | – |
| CC(C)CN(C(=O)C(C)C)c1cccc(N(C)Cc2cnc[nH]2)c1 [ESC1002165, N-[3-[1H-imidazol-5-ylmethyl(methyl)amino]phenyl]-N-isobutyl-2-methyl-propanamide] | – | – | 1.66 | 94 | 88.291 | 4.074 | 1 | 100 | 0 | – | – |
| CC(C)CN(C(=O)C1CCCCC1)c1cccc(N(C)Cc2cnc[nH]2)c1 [ESC1002166, N-[3-[1H-imidazol-5-ylmethyl(methyl)amino]phenyl]-N-isobutyl-cyclohexanecarboxamide] | – | – | 0.955 | 99 | 82.237 | 4.554 | 0.93 | 104 | 0 | – | less potent |
| CC(C)CN(C(=O)Cc1ccccc1)c1cccc(N(C)Cc2cnc[nH]2)c1 [ESC1002167, N-[3-[1H-imidazol-5-ylmethyl(methyl)amino]phenyl]-N-isobutyl-2-phenyl-acetamide] | – | – | 12.6 | 62 | 79.269 | 4.492 | 1 | 100 | 0 | – | – |
| CC(C)CN(C(=O)CCc1ccccc1)c1cccc(N(C)Cc2cnc[nH]2)c1 [ESC1002168, N-[3-[1H-imidazol-5-ylmethyl(methyl)amino]phenyl]-N-isobutyl-3-phenyl-propanamide] | – | – | 8.91 | 72 | 82.648 | 4.285 | 1.1 | 100 | 0 | – | – |
| CC(C)CN(C(=O)c1ccccc1)c1cccc(N(C)Cc2cnc[nH]2)c1 [ESC1002169, N-[3-[1H-imidazol-5-ylmethyl(methyl)amino]phenyl]-N-isobutyl-benzamide] | – | – | 0.646 | 97 | 84.229 | 4.554 | 1.1 | 98 | 0 | – | – |
| Cc1n[nH]c(Cc2ccccc2)c1-c1ccccc1O [ESC1002170, 2-(5-benzyl-3-methyl-1H-pyrazol-4-yl) phenol] | – | – | 0.501 | 99 | 79.141 | 5.192 | 1.1 | 98 | 0 | – | – |
| CC(C)CN(C(=O)c1ccccc1F)c1cccc(N(C)Cc2cn[nH]c2)c1 [ESC1002205-02] | – | – | – | – | 89.638 | 5.243 | – | – | – | – | – |
| CCN(C(=O)c1ccccc1F)c1cccc2c1ncc(=O)n2Cc1cnc[nH]1 [S2−T2, N-ethyl-2-fluoro-N-[1-(1H-imidazol-5-ylmethyl)-2-oxo-1,2 dihydroquinoxalin-5-yl]benzamide] | – | – | > 20 | 4.8 | – | – | – | – | – | – | – |
| CCN(C(=O)c1ccccn1)c1cccc(N(C)Cc2cnc[nH]2)c1 [S2−T3, N-ethyl-N-[3-[1H-imidazol-5-ylmethyl(methyl)amino]phenyl]pyridine-2-carboxamide] | – | – | > 20 | 20.3 | – | – | – | – | – | – | – |
| CCN(C(=O)c1cccc(F)c1)c1cccc(N(C)Cc2cnc[nH]2)c1 [S2−T5, N-ethyl-3-fluoro-N-[3-[1H-imidazol-5-ylmethyl(methyl)amino]phenyl]benzamide] | – | – | > 20 | 18.4 | – | – | – | – | – | – | – |
| CCN(C(=O)C1CCOCC1)c1cccc(N(C)Cc2cnc[nH]2)c1 [S2−T6, N-ethyl-N-[3-[1H-imidazol-5-ylmethyl(methyl)amino]phenyl]tetrahydropyran-4-carboxamide] | – | – | > 20 | 18.4 | – | – | – | – | – | – | – |
| CCN(C(=O)C1CCCCN1C)c1cccc(N(C)Cc2cnc[nH]2)c1 (stereo not drawn) [S2−T7, N-ethyl-N-[3-[1H-imidazol-5-ylmethyl(methyl)amino]phenyl]-1-methyl-piperidine-2-carboxamide] | – | – | > 20 | 27.9 | – | – | – | – | – | – | – |
